Assay results: patent US4005217A, “Treatment of helminth infections with substituted phenyl-thiourea derivatives” (May & Baker Limited, priority 1970, dated 1977)
In brackets after ≈: the same amount, converted by molar mass. Structures can show the parent of a compound that is named as a salt. Where two headings read alike, the source gives them in different places.

Columns and labels:
[1] = test system: Nippostrongylus brasiliensis eggs; test: In vitro activity against roundworms (egg hatching and larvae); format: cell-based; conditions: 96 h, tested at 100, 10, 1 and 0.1 μg/ml, inhibited or delayed hatching of eggs, or killed, retarded growth or reduced activity of larvae during 4 days, read-out: M.I.C. (minimum inhibitory concentration)
Experimental: Compounds of formula I were tested at concentrations of 100 μg/ml, 10 μg/ml, 1 μg/ml and 0.1 μg/ml in small glass containers. If the compound was not soluble in water, a volatile organic medium, e.g. acetone, chloroform, ethanol or methanol was used. An amount of material appropriate for each final concentration was measured and placed in duplicate test containers and if an organic solvent was used it was allowed to evaporate completely. Nippostrongylus brasiliensis eggs were recovered by saturated saline centrifugal flotation from the faeces of rats heavily infected with third stage larvae six days previously. They were washed several times in water and suspended in water in a suitable concentration. From 25-50 eggs were placed in each container and the final volume was made up by the addition of a very dilute aqueous suspension of mouse faeces which served as the growth medium. The minimum inhibitory concentrations of each compound (M.I.C.), shown in the following Table V was the minimum concentration in μg/ml total liquid volume at which it inhibited or delayed hatching of eggs, or at which it killed, retarded growth or reduced activity of larvae during the 4 days after beginning the test.

[2] = test system: influenza virus type A2 /Hong Kong/5/68; format: in vivo; conditions: mice, 250 mg/kg oral 3 hours before and 1 hour after infection; pooled lungs 24 hours after infection; greatest dilution producing agglutination
[3] = test system: Nippostrongylus brasiliensis; test: Test 2: activity against roundworms in rats, treatment 24 hours after infection, worm counts 6 days after dosing; format: in vivo
Experimental: Test 2 -- Rats were infected with 100 Nippostrongylus brasiliensis larvae each, by the subcutaneous route. After 24 hours the rats were randomised and allotted to groups of 5 animals each, ready for treatment. Doses of the test compound were then administered to each group by the oral, subcutaneous and intraperitoneal routes respectively, one group of 10 animals being left untreated as a control. All the rats were killed for post-mortem worm counts 6 days after dosing. The activities, expressed in terms of the percentage reductions in mean worm load of the treated groups or damage to the worms compared with the untreated control group, are given below in Table I.

[4] = test system: Nippostrongylus brasiliensis; test: Test 1: activity against roundworms in rats, treatment 6 days after infection (patent infection), worm counts 48 hours after treatment; format: in vivo
Experimental: Test 1 - Rats were infected with 100 Nippostrongylus brasiliensis larvae each, by the subcutaneous route. After 6 days, when the infection was patent, the rats were randomised and alloted to groups of 10 animals each, ready for treatment. One group was used for each dose level of the test compound and, in each experiment, one group was left untreated as a control. All the rats were killed for post-mortem worm counts 48 hours after treatment. The activity, expressed in terms of the percentage reduction in mean worm load of the treated group compared with the untreated group, is shown in Table I.

[5] = Nippostrongylus brasiliensis, 144 h, rats, Test 2, 1000 mg/kg oral, read-out: Percentage reduction in N.brasiliensis load
[6] = Nippostrongylus brasiliensis, po, 48 h, Test 1, 1000 mg/kg oral, read-out: Percentage reduction in N.brasiliensis load
[7] = Nippostrongylus brasiliensis, ip, 144 h, rats, Test 2, 250 mg/kg intraperitoneal, read-out: Percentage reduction in N.brasiliensis load
[8] = Nippostrongylus brasiliensis, sc, 144 h, rats, Test 2, 250 mg/kg subcutaneous, read-out: Percentage reduction in N.brasiliensis load

Compound | MIC [1] [µg/mL] | Haemagglutinin titre-treated animals [2] | inhibition in vivo at 1000 mg/kg [3, 5] [%] | worm damage ([3]; rats, Test 2, 1000 mg/kg oral) | inhibition in vivo at 1000 mg/kg [4, 6] [%] | also measured
Nc1ccccc1NC(=S)NC(=O)OCCCl [1-(2-chloroethoxycarbonyl)-3-(2-aminophenyl)thiourea] | 100 (≈ 365 µM) | 1/32 | 96 | worm damage | – | –
CCCCN(C)CC(=O)Nc1ccccc1NC(=S)NC(=O)OCC [1-ethoxycarbonyl-3-(2-N-n-butyl-N-methylaminoacetamidophenyl)thiourea hydrochloride] | 1 | 1/4 | 99 | worm damage | 86 | worm damage ([4]; Test 1, 1000 mg/kg oral): worm damage
CCOC(=O)NC(=S)Nc1cc(NC(=O)OC(C)C)ccc1NC(C)=O [1-ethoxycarbonyl-3-(2-acetamido-5-isopropoxycarbonylaminophenyl)thiourea] | – | 1/256 | – | – | – | –
CCOC(=O)NC(=S)Nc1ccc(F)cc1N [1-ethoxycarbonyl-3-(2-amino-4-fluorophenyl)thiourea] | 1 (≈ 3.89 µM) | 1/32 | 50 | worm damage | – | –
CCOC(=O)NC(=S)Nc1ccccc1NC(=O)CN(CC)CC [1-ethoxycarbonyl-3-(2-diethylaminoacetamidophenyl)thiourea hydrochloride] | 0.1 | – | 100 | – | 44 | inhibition in vivo at 250 mg/kg [3, 7]: 99%; inhibition in vivo at 250 mg/kg [3, 8]: 95%
CCOC(=O)NC(=S)Nc1ccccc1NC(=O)CN(C)C [1-ethoxycarbonyl-3-(2-dimethylaminoacetamidophenyl)thiourea hydrochloride] | 0.1 | – | 98 | – | 85 | inhibition in vivo at 125 mg/kg ([3]; Nippostrongylus brasiliensis, ip, 144 h, rats, Test 2, 125 mg/kg intraperitoneal, read-out: Percentage reduction in N.brasiliensis load): 85%; inhibition in vivo at 100 mg/kg ([3]; Nippostrongylus brasiliensis, sc, 144 h, rats, Test 2, 100 mg/kg subcutaneous, read-out: Percentage reduction in N.brasiliensis load): 76%
CCOC(=O)NC(=S)Nc1ccccc1NC(=O)CN1CCCCC1 [1-ethoxycarbonyl-3-(2-piperidinoacetamidophenyl)thiourea hydrochloride] | 1 | – | 98 | – | 85 | –
CCCCc1ccc(NC(=O)CN(C)C)c(NC(=S)NC(=O)OCC)c1 [1-ethoxycarbonyl-3-(5-n-butyl-2-dimethylaminoacetamidophenyl)thiourea hydrochloride] | 0.1 | – | 88 | – | 30 | –
CCOC(=O)NC(=S)Nc1ccccc1NC(=O)CN1CCN(C)CC1.Cl [1-ethoxycarbonyl-3-[2-(4-methylpiperazin-1-ylacetamido)phenyl]thiourea hydrochloride] | 0.1 | – | 100 | – | – | worm damage ([4]; Test 1, 1000 mg/kg oral): worm damage; inhibition in vivo at 250 mg/kg [3, 7]: 98%; inhibition in vivo at 250 mg/kg [3, 8]: 93%
CCOC(=O)NC(=S)Nc1ccccc1NC(=O)CN(C)Cc1ccccc1 [1-ethoxycarbonyl-3-[2-(N-benzyl-N-methylaminoacetamido)-phenyl]thiourea hydrochloride] | 0.1 | – | 99 | worm damage | 50 | worm damage ([4]; Test 1, 1000 mg/kg oral): worm damage
COC(=O)NC(=S)Nc1ccc(NC(=O)OC(C)C)cc1NC(C)=O [1-methoxycarbonyl-3-(2-acetamido-4-isopropoxycarbonylaminophenyl)thiourea] | – | 1/256 | – | – | – | –
COC(=O)NC(=S)Nc1cc(NC(=O)OC(C)C)ccc1NC(C)=O [1-methoxycarbonyl-3-(2-acetamido-5-isopropoxycarbonylaminophenyl)thiourea] | – | 1/128 | – | – | – | –
COC(=O)NC(=S)Nc1ccc(NC(=O)OC)cc1N [1-methoxycarbonyl-3-(2-amino-4-methoxycarbonylaminophenyl)thiourea] | 100 (≈ 335 µM) | 1/512 | 100 | – | 100 | inhibition in vivo at 250 mg/kg ([3]; Nippostrongylus brasiliensis, 144 h, rats, Test 2, 250 mg/kg oral, read-out: Percentage reduction in N.brasiliensis load): 99%; inhibition in vivo at 500 mg/kg ([3]; Nippostrongylus brasiliensis, 144 h, rats, Test 2, 500 mg/kg oral, read-out: Percentage reduction in N.brasiliensis load): 99%
COC(=O)NC(=S)Nc1ccccc1N.O=[N+]([O-])O [1-methoxycarbonyl-3-(2-aminophenyl)thiourea nitrate] | – | – | – | – | – | Percentage reduction in N.brasiliensis load ([4]; Test 1, 1000 mg/kg oral): 99%; inhibition in vivo at 1000 mg/kg ([3]; Nippostrongylus brasiliensis, po, 144 h, read-out: Percentage reduction in N.brasiliensis load, rats, Test 2, 1000 mg/kg oral): 99%
COC(=O)NC(=S)Nc1ccccc1N.Cc1ccc(S(=O)(=O)O)cc1 [1-methoxycarbonyl-3-(2-aminophenyl)thiourea toluene-p-sulphonate] | – | – | – | – | – | Percentage reduction in N.brasiliensis load ([4]; Test 1, 1000 mg/kg oral): 98%; Percentage reduction in N.brasiliensis load ([3]; rats, Test 2, 1000 mg/kg oral): 99%
CCCCc1ccc(NC(=O)C2CC2)c(NC(=S)NC(=O)OC)c1 [1-methoxycarbonyl-3-(2-cyclopropylcarbonamido-5-n-butylphenyl)thiourea] | 0.1 (≈ 0.286 µM) | 1/128 | – | – | – | –
COC(=O)NC(=S)Nc1ccccc1NC(=O)C[N+](C)(C)C [1-methoxycarbonyl-3-(2-trimethylammoniumacetamidophenyl)thiourea iodide] | 1 | 1/256 | – | worm damage | – | –
COC(=O)NC(=S)Nc1cc(NC(=O)OC(C)C)ccc1NC=O [1-methoxycarbonyl-3-(2formamido-5-isopropoxycarbonylaminophenyl)thiourea] | – | 1/256 | – | – | – | –
CCCCc1ccc(NC(=S)NC(=O)OC)c(NC(=O)OCC)c1 [1-methoxycarbonyl-3-(4-n-butyl-2-ethoxycarbonylaminophenyl)thiourea] | 0.1 (≈ 0.283 µM) | – | – | – | – | inhibition in vivo at 500 mg/kg ([4]; Nippostrongylus brasiliensis, po, 48 h, Test 1, 500 mg/kg oral, read-out: Percentage reduction in N.brasiliensis load): 40%; worm damage ([4]; Test 1, 500 mg/kg oral): worm damage
CCCCc1ccc(NC=O)c(NC(=S)NC(=O)OC)c1 [1-methoxycarbonyl-3-(5n-butyl-2-formamidophenyl)thiourea] | 0.1 (≈ 0.323 µM) | 1/32 | 96 | worm damage | – | –
COC(=O)NC(=S)Nc1ccccc1NC(=O)CCN(C)C.Cl [1-methoxycarbonyl-3-[2-(3-dimethylaminopropionamido)phenyl]thiourea hydrochloride] | 1 | – | 98 | worm damage | 20 | worm damage ([4]; Test 1, 1000 mg/kg oral): worm damage
C#CCOC(=O)NC(=S)Nc1ccccc1N [1-propargyloxycarbonyl-3-(2-aminophenyl)thiourea] | 1 (≈ 4.01 µM) | – | 100 | – | 76 | worm damage ([4]; Test 1, 1000 mg/kg oral): worm damage
